Patent US20160222014A1, “COMPOUNDS FOR REGULATING FAK AND/OR SRC PATHWAYS” (ASANA BIOSCIENCES, LLC, priority 2013, published 2016)
Like-named read-outs stand apart in the source and are kept apart here.

Columns and labels:
[1] = target: T1, FAK phosphorylated at Y397 in HEK-FAK cell line overexpressing human FL FAK protein (Homo sapiens, UniProt Q05397); assay: Cell based assay, Phospho-FAK ELISA; details: HEK stb
T1 construct: expressed in transfected cells
Text: D. Cell Based Assay-Phospho-FAK ELISA
The DuoSet IC ELISA (R&D systems—Cat no. DYC4528-5) provided the basic components required for the development of sandwich ELISAs to measure Focal Adhesion Kinase 1 (FAK) phosphorylated at Y397 in cell lysates. An immobilized capture antibody specific for FAK, also known as PTK2, binds both phosphorylated and unphosphorylated protein. After washing away unbound material, a biotinylated detection antibody specific for FAK phosphorylated at Y397 was used to detect only phosphorylated protein, utilizing a standard Streptavidin-HRP format. The cell line used for the assay was a stable HEK-FAK cell line overexpressing human FL FAK protein, which was generated as follows.
HEK293 cells (ATCC® CRL-1573™, 10801 University Boulevard, Manassas, Va. 20110 USA) were seeded in four 100 mm petri dishes at a seeding density of 1.5×10^6 cells per plate and incubated overnight at 37° C. in a 5% CO2 incubator. The transfection mix was prepared as follows. (A) 10 μg DNA (pCDNA4 V5/HisA vector containing Zeocin as mammalian selection marker, procured from Invitrogen) with the full length human FAK gene represented by the nucleotide sequence provided in NCBI Reference Sequence: NM_153831.3, SEQ ID NO: 1:
was added to 1.5 mL Opti-MEM® (reduced serum media is a modification of Eagle's Minimum Essential Media, buffered with HEPES and sodium bicarbonate and supplemented with hypoxanthine, thymidine, sodium pyruvate, L-glutamine, trace elements and growth factors commercially available from Invitrogen) and incubated at room temperature for 5 minutes. (B) 30 μL Lipofectamine™ Transfection reagent (Life Technologies) was added to 1.5 mL Opti-MEM® and incubated at room temperature for 5 minutes. Following this, (a) and (b) were mixed and incubated at room temperature for 20 minutes. Media was removed from cells and washed with 1× phosphate buffered saline (PBS) and the transfection mix prepared above was mixed with 3 mL of Opti-MEM®, added to the cells and incubated at 37° C. Four hours later, 6 mL of 20% Dulbecco's Modified Eagle Medium (DMEM) was added to the plates and incubated at 37° C. in a 5% CO2 incubator. Approximately 72 hours after transfection, cells were subcultured at various dilutions with fresh medium containing 0.8 mg/mL Zeocin™ (Life Technologies). Cells were replenished with selective medium every 3-4 days until cell foci were identified in the FAK transfected cells and most of the cells died in the control plates. Cells from these foci were grown in the presence of selective media and the expression of FAK was confirmed by Western Blotting. Over expression of FAK in the stably-transfected cells was quantified in the cell-based ELISA assay described below by determining the signal window, with a signal window of 2 or above considered to be robust). The HEK-FAK stable cell line thus was maintained in 0.8 mg/mL Zeocin™ (Life Technologies) and used in cell-based ELISA to assess autophosphorylation of FAK.
(i) Materials • 1. Phospho-FAK (Y397)-Capture Antibody • 2. Phospho-FAK (Y397)-Detection Antibody • 3. Streptavidin-HRP • 4. Cells used for the assay-HEK over expressing human FL FAK protein
(ii) Solutions • PBS—137 mM NaCl, 2.7 mM KCl, 8.1 mM Na2HPO4, 1.5 mM KH2PO4, pH 7.2-7.4, 0.2 μm filtered. • Wash Buffer—0.05% Tween20™ in PBS, pH 7.2-7.4 • Block Buffer—1% BSA, 0.05% NaN3, in PBS, pH 7.2-7.4. • IC Diluent #1-1% BSA in PBS, pH 7.2-7.4, 0.2 μm filtered. • IC Diluent #8-1 mM EDTA, 0.5% Triton™ X-100, 5 mM NaF in PBS, pH 7.2-7.4. IC Diluent #8 was also the base buffer for IC Diluent #3, IC Diluent #7, and Lysis. • Buffer #6. […]

recombinant human FAK1 = target: T2, recombinant human FAK1 (Homo sapiens, UniProt Q05397); assay: FAK1 HTRF assay; assay type: biochemical
T2 construct: fused on or other part: N-terminal 6xHis tag
Summary of the method: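 IC50 values derive from HTRF % inhibition (ratio 665/620 nm, Eu–anti-phosphotyrosine 0.1 nM, SA-APC 12 nM). The kinase step ran 45 min at room temperature, pairing 10 nM His-FAK1(692–end) from baculovirus with 0.5 μM gastrin Tyr87 biotin-peptide and a reagent at 10 μM final, pH 7.4. Compound dilutions began at 10 μM.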

[2] = read-out: pFAK EC50 (μM) HEK stb

T2 sequence (Q05397 422-680 limits assumed): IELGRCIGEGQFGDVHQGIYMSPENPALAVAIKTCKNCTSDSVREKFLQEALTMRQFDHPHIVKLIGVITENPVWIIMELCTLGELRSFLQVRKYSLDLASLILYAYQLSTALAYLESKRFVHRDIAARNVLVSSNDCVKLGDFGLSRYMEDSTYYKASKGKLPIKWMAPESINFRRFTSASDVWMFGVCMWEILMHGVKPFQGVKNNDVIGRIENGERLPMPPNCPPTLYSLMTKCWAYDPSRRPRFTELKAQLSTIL
T1 sequence (Q05397 whole entry): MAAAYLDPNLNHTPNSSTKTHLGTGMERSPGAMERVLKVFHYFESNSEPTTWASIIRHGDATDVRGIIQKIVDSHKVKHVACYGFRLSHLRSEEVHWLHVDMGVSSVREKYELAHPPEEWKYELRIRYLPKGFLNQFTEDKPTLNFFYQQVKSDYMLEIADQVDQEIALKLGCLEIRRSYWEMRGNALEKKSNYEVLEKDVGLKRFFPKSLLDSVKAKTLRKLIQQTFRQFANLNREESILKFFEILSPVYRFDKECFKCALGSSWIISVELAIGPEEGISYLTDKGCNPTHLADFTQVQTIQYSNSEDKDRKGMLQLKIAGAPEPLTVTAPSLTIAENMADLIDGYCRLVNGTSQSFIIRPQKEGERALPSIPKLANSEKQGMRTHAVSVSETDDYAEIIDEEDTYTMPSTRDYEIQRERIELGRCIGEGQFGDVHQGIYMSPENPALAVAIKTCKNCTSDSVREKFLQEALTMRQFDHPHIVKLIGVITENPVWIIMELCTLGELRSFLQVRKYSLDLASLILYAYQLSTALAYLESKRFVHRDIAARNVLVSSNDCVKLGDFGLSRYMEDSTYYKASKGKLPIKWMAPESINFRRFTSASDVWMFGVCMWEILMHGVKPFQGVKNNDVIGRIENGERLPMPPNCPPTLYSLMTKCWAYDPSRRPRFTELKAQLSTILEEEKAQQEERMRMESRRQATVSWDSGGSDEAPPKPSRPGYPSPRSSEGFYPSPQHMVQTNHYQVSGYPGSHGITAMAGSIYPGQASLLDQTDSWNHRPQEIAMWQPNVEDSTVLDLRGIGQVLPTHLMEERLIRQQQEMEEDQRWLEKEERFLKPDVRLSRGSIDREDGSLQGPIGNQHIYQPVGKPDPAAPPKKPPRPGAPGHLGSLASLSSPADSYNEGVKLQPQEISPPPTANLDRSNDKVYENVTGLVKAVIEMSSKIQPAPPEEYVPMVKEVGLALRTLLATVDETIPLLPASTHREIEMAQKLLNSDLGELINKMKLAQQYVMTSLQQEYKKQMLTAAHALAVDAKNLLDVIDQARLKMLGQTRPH

EC50 [1, 2] | IC50 (recombinant human FAK1) | EC50 ([1]; read-out: pFAK EC50 HEK stb) | Compound
> 1 µM |  |  | CN(C)Cc1ccc(Nc2ncc3ccn(Cc4cccnc4N(C)S(C)(=O)=O)c3n2)cc1 [Example 207]
> 1 µM |  |  | CN(c1ncccc1Cn1ccc2cnc(Nc3ccc4c(c3)OCCN4)nc21)S(C)(=O)=O [Example 221]
> 1 µM | < 0.02 µM |  | CN(c1ccccc1Cn1ncc2cnc(Nc3ccc4c(c3)CCC(=O)N4)cc21)S(C)(=O)=O [Example 225]
> 1 µM |  |  | Cc1ccccc1S(=O)(=O)n1ccc2cnc(Nc3ccc(N4CCNCC4)cc3)nc21 [Example 233]
> 1 µM |  |  | CN(c1ncccc1Cn1ccc2cnc(Nc3ccc(N4CC5CC4CN5)cc3)nc21)S(C)(=O)=O (centres unmarked) [Example 372]
> 1 µM |  |  | CN(c1ncccc1Cn1ncc2cnc(Nc3ccc(N4CCC(O)CC4)cc3)cc21)S(C)(=O)=O [Example 394]
> 1 µM | < 0.02 µM |  | COc1cc(Nc2ncc3ccn(Cc4ccccc4N(C)S(C)(=O)=O)c3n2)ccc1N1CCN(CCO)CC1 [Example 421]
> 1 µM |  |  | CN(c1ccccc1Cn1ccc2cnc(Nc3ccc4c(c3)C(=O)NC4=O)nc21)S(C)(=O)=O [Example 435]
> 1 µM | < 0.02 µM |  | CN1CCN(c2ccc(Nc3cc4c(ccn4S(=O)(=O)c4ccccc4C#N)cn3)cc2)CC1 [Example 506]
> 1 µM |  |  | CN1CCCN(c2ccc(Nc3ncc4ccn(Cc5ccccc5N(C)S(C)(=O)=O)c4n3)cc2)CC1 [Example 520]
> 1 µM | < 0.02 µM |  | CN(c1ccccc1Cn1ccc2cnc(Nc3ccc4c(c3)CC3CNCCN43)nc21)S(C)(=O)=O (centres unmarked) [Example 526]
> 1 µM |  |  | CN(C)C1CCN(c2ccc(Nc3ncc4ccn(Cc5cccnc5N(C)S(C)(=O)=O)c4n3)cc2)CC1 [Example 530]
> 1 µM |  |  | CN(c1ncccc1Cn1ccc2cnc(Nc3ccc4c(c3)CC3CNCCN43)nc21)S(C)(=O)=O (centres unmarked) [Example 538]
> 1 µM |  |  | CN(c1ncccc1Cn1ccc2cnc(Nc3ccc(N4CCNC(C)(C)C4=O)cc3)nc21)S(C)(=O)=O [Example 540]
> 1 µM |  |  | C[C@@H]1CN(c2ccc(Nc3ncc4ccn(Cc5cccnc5N(C)S(C)(=O)=O)c4n3)cc2F)CCN1 [Example 561]
> 1 µM |  |  | CCC1CN(c2ccc(Nc3ncc4ccn(Cc5cccnc5N(C)S(C)(=O)=O)c4n3)cc2)CCN1 (centres unmarked) [Example 645]
> 1 µM |  |  | CN(c1ncccc1Cn1ccc2cnc(Nc3ccc4[nH]ccc4c3)nc21)S(C)(=O)=O [Example 667]
> 1 µM |  |  | CN(c1ncccc1Cn1ccc2cnc(Nc3ccc4[nH]c(C5CCNCC5)cc4c3)nc21)S(C)(=O)=O [Example 677]
> 1 µM |  |  | CN(c1ncccc1Cn1ccc2cnc(Nc3ccc(-c4ccc(=O)[nH]c4)cc3)nc21)S(C)(=O)=O [Example 688]
> 1 µM |  |  | C[C@@H]1CN(c2ccc(Nc3ncc4c(n3)N(c3ccccn3)CC4(C)C)cc2)CCN1 [Example 726]
> 1 µM |  |  | CN(c1ncccc1Cn1ccc2cnc(Nc3ccc(N4CCNC(CF)C4)cc3)nc21)S(C)(=O)=O (centres unmarked) [Example 737, N-(3-((2-((4-(3-(fluoromethyl)piperazin-1-yl)phenyl)amino)-7H-pyrrolo[2,3-d]pyrimidin-7-yl)methyl)pyridin-2-yl)-N-methylmethanesulfonamide]
> 1 µM |  |  | CN(c1ncccc1Cn1ccc2cnc(Nc3ccc(N4CCCC(N)C4)cc3)nc21)S(C)(=O)=O (centres unmarked) [Example 776]
 |  | > 1 µM | CNC(=O)c1ccc(Nc2ncc3ccn(Cc4cccnc4N(C)S(C)(=O)=O)c3n2)cc1 [Example 982]

More lines, now with the values behind:

Compound | EC50 [1, 2] | IC50 (recombinant human FAK1) | EC50 ([1]; read-out: pFAK EC50 HEK stb)
CN(c1ncccc1Cn1ccc2cnc(Nc3ccc4c(c3)CCC(=O)N4)cc21)S(C)(=O)=O [Example 31] | > 1 µM | < 0.02 µM | 
CN(c1ncccc1Cn1ccc2cnc(Nc3ccc4[nH]c(=O)[nH]c4c3)nc21)S(C)(=O)=O [Example 77] | > 1 µM | < 0.02 µM | 
O=S(=O)(c1ccccc1Cl)n1ncc2cnc(Nc3ccc(N4CCNCC4)cc3)nc21 [Example 254] | > 1 µM |  | 
O=S(=O)(c1cccc(Cl)c1)n1ncc2cnc(Nc3ccc(N4CCNCC4)cc3)cc21 [Example 308] | > 1 µM |  | 
CC(=O)N1CCN(c2ccc(Nc3cc4c(cn3)cnn4S(=O)(=O)c3ccccc3C#N)cc2)CC1 [Example 341] | > 1 µM |  | 
COc1c(Nc2ncc3ccn(Cc4ccccc4N(C)S(C)(=O)=O)c3n2)ccc(N2CCNCC2)c1F [Example 456] | > 1 µM |  | 
CC1(C)CN(S(=O)(=O)c2ccccc2OC(F)F)c2nc(Nc3ccc(N4CCNCC4)cc3)ncc21 [Example 464] | > 1 µM |  | 
C[C@H]1CN(C)CCN1c1ccc(Nc2ncc3ccn(Cc4cccnc4N(C)S(C)(=O)=O)c3n2)cc1 [Example 497] | > 1 µM |  | 
CC1CN(c2ccc(Nc3ncc4ccn(Cc5cccnc5N(C)S(C)(=O)=O)c4n3)cc2)CC(C)N1 (centres unmarked) [Example 522] | > 1 µM |  | 
C[C@@H]1CN(c2ccc(Nc3cc4c(ccn4S(=O)(=O)c4ccccc4C#N)cn3)cc2)CCN1 [Example 537] | > 1 µM |  | 
CN(c1ncccc1Cn1ccc2cnc(Nc3ccc(N4CCCNCC4)cc3)nc21)S(C)(=O)=O [Example 549] | > 1 µM |  | 
CN1C(=O)Cc2cc(Nc3ncc4ccn(Cc5cccnc5N(C)S(C)(=O)=O)c4n3)ccc21 [Example 560] | > 1 µM |  | 
CN(c1ccccc1Cn1ccc2cnc(Nc3ccc(N4CCNCC4)c(CO)c3)nc21)S(C)(=O)=O [Example 568] | > 1 µM |  | 
CN(C)C1CN(c2ccc(Nc3ncc4ccn(Cc5cccnc5N(C)S(C)(=O)=O)c4n3)cc2)C1 [Example 580] | > 1 µM |  | 
CN(C)C1CCN(c2ccc(Nc3ncc4ccn(Cc5cccnc5N(C)S(C)(=O)=O)c4n3)cc2)C1 (centres unmarked) [Example 589] | > 1 µM |  | 
CN(c1ncccc1Cn1ccc2cnc(Nc3ccc(OCCN4CCOCC4)cc3)nc21)S(C)(=O)=O [Example 613] | > 1 µM |  | 
C[C@H](O)CN1CCN(c2ccc(Nc3ncc4ccn(Cc5cccnc5N(C)S(C)(=O)=O)c4n3)cc2)C[C@@H]1C [Example 663, N-(3-((2-((4-((S)-4-((S)-2-Hydroxypropyl)-3-methylpiperazin-1-yl)phenyl)amino)-7H-pyrrolo[2,3-d]pyrimidin-7-yl)methyl)pyridin-2-yl)-N-methylmethanesulfonamide] | > 1 µM |  | 
C[C@@H](O)CN1CCN(c2ccc(Nc3ncc4ccn(Cc5cccnc5N(C)S(C)(=O)=O)c4n3)cc2)CC1 [Example 666] | > 1 µM |  | 
CN(c1ncccc1Cn1ccc2cnc(Nc3ccc(NC4CCNCC4)cc3)nc21)S(C)(=O)=O [Example 684] | > 1 µM |  | 
C[C@H](O)CN1CCN(c2ccc(Nc3ncc4ccn(Cc5cccnc5N(C)S(C)(=O)=O)c4n3)cc2)C[C@H]1C [Example 694] | > 1 µM |  | 
CN(c1ncccc1Cn1ccc2cnc(Nc3ccc4[nH]c(C(=O)N5CCNCC5)cc4c3)nc21)S(C)(=O)=O [Example 696] | > 1 µM |  | 
CN(c1ccccc1Cn1ccc2cnc(Nc3ccc4[nH]c(C(=O)N5CCNCC5)cc4c3)nc21)S(C)(=O)=O [Example 698] | > 1 µM |  | 
C[C@H]1CN(c2ccc(Nc3ncc4ccn(Cc5ccccc5NS(=O)(=O)CCCF)c4n3)cc2)CCN1 [Example 723] | > 1 µM |  | 
Cc1cc(Nc2ncc3ccn(Cc4cccnc4N(C)S(C)(=O)=O)c3n2)ccc1C1CCN(CCO)CC1 [Example 887] |  |  | > 1 µM
